Measurements published in US9232797B2, “Pesticidal composition and its use” (SUMITOMO CHEMICAL COMPANY, LIMITED, priority 2010, dated 2016).

Test system: Rhizoctonia solani
Experiment: Soybean seed treatment test in soil contaminated by Rhizoctonia solani (disease control efficacy)
Assay type: in vivo, Rhizoctonia solani on soybean (variety: Natto shoryu)
Details: seed treatment with carboxamide compound alone 0.2 g/100 kg of seeds; soybean cultivated 20 days in contaminated soil; versus non-treated plot
Procedure: A cyclohexanone solution (100 microL) containing prescribed amount (weight) of a test compound was applied on seeds of soybean (variety: Natto shoryu) (10 g) by using a rotary apparatus for seed treatment (Seed dresser, manufactured by Hans-Ulrich Hege GmbH).
One day after the treatment, plastic pot was filled with soil contaminated by Rhizoctonia solani, and the seeds treated with the test compounds were seeded in the soil and cultivated in a glass-greenhouse for 20 days (hereinafter referred to as “treated plot”).
Thereafter, the presence of disease caused by Rhizoctonia solani in the young plants which germinated from each seed was observed and disease severity was calculated according to the following calculation formula (1).
On the other hand, seeds of soybean which were not treated as above were cultivated in the same way as above (hereinafter referred to as “non-treated plot”) and the disease severity in “non-treated plot” was calculated in the same way as above “treated plot”. On the basis of the above disease severity in “treated plot” and “non-treated plot”, efficacy in “treated plot” was evaluated according to the following calculation formula (2). […]

In the case of `CC1CC(C)(C)c2cccc(NC(=O)c3cn(C)nc3C(F)F)c21` (stereo not shown) [carboxamide compound (I)], the “efficacy (%)” value is reported as 42.1%.
